Measured values from PMC8836561, “Poly-Lysine Dendritic Nanocarrier to Target Epidermal Growth Factor Receptor Overexpressed Breast Cancer for Methotrexate Delivery” (Materials, 2022).
Several values for one entry are separate records, joined by “and”; a condition that tells them apart may be missing. Equal values may be shown once.

Legend:
[1] = system: MDA-MB-231 (EGFR overexpressed) cells; experiment: Receptor binding ability by flow cytometry, MDA-MB-231; format: cell-based; conditions: fluorescein MTX 5 µg/mL or fluorescein MTX-conjugated system 8.6 µg/mL (equivalent MTX), 24 h
Experimental: (§1) Then fluorescein MTX (5 µg/mL) and fluorescein MTX-conjugated systems (8.6 µg/mL; having equivalent MTX concentrations) were added to each well and incubated for 24 h. After incubation, the cells were trypsinized and analyzed by flow cytometry. The cells without MTX or DDS treatment were taken as the control.

MDA-MB-231 cells [2] = experiment: Cytotoxicity by MTT assay, MDA-MB-231; format: cell-based; conditions: MDA-MB-231 (receptor positive), MTX 5 µg/mL or nanocarrier system at equivalent drug concentration (8.6 µg/mL), 48 h, triplicate
Experimental: (§2) The cytotoxic efficacy of MTX–G–P4LDN–E2 was analyzed by an MTT assay. The cells were seeded in a 96-well plate at a density of 5000 cells per well. […] After 48 h of incubation, the cells were washed twice with 1X PBS, followed by the addition of MTT reagent (100 μL; 5 mg/mL in PBS) and 100 μL serum-free media to all wells and incubated for 3 h. Then DMSO (100 µL) was added to solubilize the formazan crystals, formed in viable cells. After 20 min, the optical density (OD) was measured at 570 nm using a microplate reader (BioRad). The percentage cell viability was calculated as 100 percentage cytotoxicity, where: % cytotoxicity=O.D of control−O.D of test /O.D of control[…]

[3] = system: SiHa (EGFR negative) cells; experiment: Functional evaluation by confocal microscopy, SiHa; format: cell-based; conditions: fluorescein MTX 5 µg/mL or conjugated system 8.6 µg/mL, 24 h
Experimental: (§3) MDA-MB-231 (EGFR overexpressed) and SiHa (EGFR negative) cells were grown on coverslips inside the 6-well plates, and the receptor binding ability of MTX–G–P4LDN–E2 was analyzed by confocal microscopy. Fluorescein methotrexate (5 µg/mL) and fluorescein MTX conjugated system (8.6 µg/mL; having equivalent methotrexate concentrations) were added to the wells and incubated for 24 h. The cells without MTX or DDS treatment were taken as the control. Then, Hoechst 33342 (10 µg/mL) was added and incubated for 15 min. The cells were observed under a confocal laser scanning microscope at suitable magnifications.

[4] = system: MDA-MB-231 (EGFR overexpressed) cells; experiment: Functional evaluation by confocal microscopy, MDA-MB-231; format: cell-based; conditions: fluorescein MTX 5 µg/mL or conjugated system 8.6 µg/mL, 24 h
Experimental: as §3

SiHa cells [5] = experiment: Cell cycle analysis by flow cytometry (propidium iodide), SiHa; format: cell-based; conditions: 24 h incubation, FACS
Experimental: (§4) The cell cycle analysis was conducted by flow cytometry using the manufacturer’s protocol. Briefly, MDA-MB-231 and SiHa cells (1 × 10^5cells/well) were incubated with MTX and MTX–G–P4LDN–E2 for 24 h, trypsinized, and centrifuged to collect the pellet. The cells were then fixed with pre-cooled 70% ethanol at 4 °C for 45 min. After fixation, the pellet was collected carefully after centrifugation at 850× g for 5 min. It was then washed twice with 1X PBS, and 50 μL RNase (100 μg/mL) was added and incubated for 45 min at 37 °C. Then, the cells were washed with 1X PBS and stained with propidium iodide (100 μL, 50 μg/mL) for 10 min. The cellular DNA was analyzed by flow cytometer, and the percentage of cells in each phase of the cell cycle was analyzed by BD FACS Diva software.

MDA-MB-231 cells [6] = experiment: Cell cycle analysis by flow cytometry (propidium iodide), MDA-MB-231; format: cell-based; conditions: MDA-MB-231, 24 h incubation, FACS
Experimental: as §4

SiHa cells [7] = experiment: Cytotoxicity by MTT assay, SiHa; format: cell-based; conditions: SiHa (receptor negative), MTX 5 µg/mL or nanocarrier system at equivalent drug concentration (8.6 µg/mL), 48 h, triplicate
Experimental: as §2

[8] = system: SiHa (EGFR negative) cells; experiment: Receptor binding ability by flow cytometry, SiHa; format: cell-based; conditions: fluorescein MTX 5 µg/mL or fluorescein MTX-conjugated system 8.6 µg/mL (equivalent MTX), 24 h
Experimental: as §1

MDA-MB-231 tumor = experiment: Anti-tumor efficacy in MDA-MB-231 tumor-bearing NOD-SCID mice; format: in vivo; conditions: female NOD-SCID mice, tail vein, 5 times for 20 days
Experimental: For analyzing the efficacy of the nanocarrier systems, fifteen male and fifteen female NOD-SCID mice were assigned to three groups each (n = 3 in first group and n = 6 in second and third groups). Tumor was implanted by injecting cells subcutaneously in the dorsolateral flank with a concentration of 5 × 10^6 MDA-MB-231 cells to female NOD-SCID mice. When the volume of tumor reached 500–1000 mm^3, the first group of animals, serving as the control group, was given PBS (5 mL/kg body weight). The second group was given free-drug MTX (20 mg/kg) through the tail vein. The third group received MTX–G–P4LDN–E2 (35 mg/kg, equivalent to the MTX concentration) through the tail vein, and the treatment was given to the mice 5 times for 20 days.
The tumor volume and body weight of the animals were measured before each injection. The body weight and tumor volume on the final day (24th day) was also calculated. A vernier caliper was used to measure the tumor, and the tumor volume was calculated using the formula: Tumor volume (mm^3)=(length in mm)×(width in mm)^2/2
The treatment was started when the tumor volume reached 500–1000 mm^3. There were 3 groups (n = 3 for control group and n = 6 for treatment groups). First group received PBS (5 mL/kg body weight) was treated as the control. […] On every injection day, the tumor volume as well as the body weight of the animals were measured.

MDA-MB-231 cells [9] = experiment: In vitro binding of rhodamine B-conjugated peptides, MDA-MB-231; format: cell-based; conditions: MDA-MB-231, 2 h, 37 °C, flow cytometry and confocal imaging
Experimental: Figure S4. Binding activities of rho B-conjugated peptides after incubating with MDA-MB-231 cells for 2 hours at 37°C. a) Untreated control MDA-MB-231 cell. MDA-MB-231 cells binding with b) E1, c) E2, d) E3, e) E4, and f) E5. g) Binding affinity percentages of rho B- conjugated peptides. […]
Figure S6. Internalization of peptides in MDA -MB-231 cells. MDA-MB-231 (EGFR overexpressed) cells were incubated with E1 to E5 peptides (50 µM) for 2 hours at 37°C. Rho-B alone was given as the control. The cells were nuclear stained […]
(1 picture or pasted object on this page, not shown here)

CN(Cc1cnc2nc(N)nc(N)c2n1)c1ccc(C(=O)N[C@@H](CCC(=O)O)C(=O)O)cc1 [MTX, methotrexate]
Binding ability (% of cells, P2) [1]: 99.6% and > 99%
Cytotoxicity (MDA-MB-231 cells [2]): 63%
Binding (fluorescence) in confocal images [3]: only the free drug showed fluorescence
Binding (fluorescence) in confocal images [4]: bound with the MDA-MB-231 cells similarly
Percentage of cells in G0 (SiHa cells [5]): 14.4%
Percentage of cells in G1 (SiHa cells [5]): 64.3%
Percentage of cells in G2-M (SiHa cells [5]): 10.7%
Percentage of cells in S (SiHa cells [5]): 8.8%
Percentage of cells in G0 (MDA-MB-231 cells [6]): 9%
Percentage of cells in G1 (MDA-MB-231 cells [6]): 52.1%
Percentage of cells in G2-M (MDA-MB-231 cells [6]): 14.9%
Percentage of cells in S (MDA-MB-231 cells [6]): 19.1%
Cytotoxicity (SiHa cells [7]): 57%
Binding ability (% of cells, P2) [8]: 82.4%
Average tumor volume at the end of the treatment (MDA-MB-231 tumor; MTX 20 mg/kg or MTX–G–P4LDN–E2 35 mg/kg (equivalent MTX), day 25, n = 6, mean ± SD, control 2890 ± 85.440): 661.8 ± 209.067 mm^3
Reduction in tumor volume compared to control (MDA-MB-231 tumor; MTX 20 mg/kg or MTX–G–P4LDN–E2 35 mg/kg, day 25, n = 6): 77.2%

ARSHVGYTGAR [E2, EGFR-specific short peptide …]
Binding efficacy of the short peptides in vitro (MDA-MB-231 cells [9]): highest binding efficacy
